# Key:
# [1] = tested on: Canis familiaris; experiment: Compound was evaluated for 40-60% increase of myocardial contractility in a conscious dog model orally administered.; format: functional, Canis lupus familiaris, Myocardium
# [2] = tested on: Canis familiaris; experiment: Evaluated for 50% increase of myocardial contractility in anesthetized dog, administered intravenously; format: functional, Canis lupus familiaris, Myocardium
# [3] = tested on: Canis familiaris; experiment: Compound was evaluated for 40-60% increase of myocardial contractility in a conscious dog model orally administered; format: functional, Canis lupus familiaris, Myocardium
# [4] = tested on: Canis familiaris; experiment: Compound was evaluated for 50% increase of myocardial contractility in a conscious dog model orally administered.; format: functional, Canis lupus familiaris, Myocardium
# [5] = tested on: Canis familiaris; experiment: Compound was evaluated for 40-60% increase of myocardial contractility in a conscious dog model perorally administered; format: functional, Canis lupus familiaris, Myocardium
# [6] = tested on: Canis familiaris; experiment: Percent increase in contractility was evaluated by effect of Cardiotonic agents on myocardial contractility in conscious dog administered orally at dose of 10 mg/kg; format: functional, Canis lupus familiaris, Myocardium; conditions: route oral
# [7] = tested on: Canis familiaris; experiment: Percent increase in heart rate was evaluated by effect of Cardiotonic agents on myocardial contractility in conscious dog administered orally at dose of 10 mg/kg; format: functional, Canis lupus familiaris; conditions: route oral
# [8] = tested on: Canis familiaris; experiment: Percent increase in contractility was evaluated by effect of Cardiotonic agents on myocardial contractility in conscious dog administered orally at dose of 1.0 mg/kg; format: functional, Canis lupus familiaris, Myocardium; conditions: route oral
# [9] = tested on: Canis familiaris; experiment: Percent increase in heart rate was evaluated by effect of Cardiotonic agents on myocardial contractility in conscious dog administered orally at dose of 1.0 mg/kg; format: functional, Canis lupus familiaris; conditions: route oral
# [10] = tested on: Canis familiaris; experiment: Cardiovascular activity (blood pressure) (0.31 ug/kg) in dog before beta-blockade; format: functional, Canis lupus familiaris
# [11] = tested on: Canis familiaris; experiment: Cardiovascular activity (contractility) (0.31 ug/kg) in dog after beta-blockade; format: functional, Canis lupus familiaris
# [12] = tested on: Canis familiaris; experiment: Cardiovascular activity (blood pressure) (0.31 ug/kg)in dog after beta-blockade; format: functional, Canis lupus familiaris
# [13] = tested on: Canis familiaris; experiment: Cardiovascular activity (contractility) (0.31 ug/kg) in dog before beta-blockade.; format: functional, Canis lupus familiaris
# [14] = tested on: Canis familiaris; experiment: Cardiovascular activity (heart rate) (0.31 ug/kg) in dog before beta-blockade; format: functional, Canis lupus familiaris
# [15] = tested on: Canis familiaris; experiment: Cardiovascular activity (heart rate) (0.31 ug/kg) in dog after beta-blockade.; format: functional, Canis lupus familiaris
# [16] = tested on: Canis familiaris; experiment: Cardiovascular activity(heart rate) (0.31 mg/kg) in dog after beta-blockade; format: functional, Canis lupus familiaris
# [17] = tested on: Canis familiaris; experiment: Percent increase in contractility was evaluated by effect of Cardiotonic agents on myocardial contractility in conscious dog administered orally at dose of 0.31 mg/kg; Value ranges from (10-20); format: functional, Canis lupus familiaris, Myocardium; conditions: route oral
# [18] = tested on: Canis familiaris; experiment: Cardiovascular activity (contractility) (0.31 mg/kg) in dog after beta-blockade; format: functional, Canis lupus familiaris
# [19] = tested on: Canis familiaris; experiment: Cardiovascular activity(heart rate) (0.31 mg/kg) in dog before beta-blockade; format: functional, Canis lupus familiaris
# [20] = tested on: Canis familiaris; experiment: Cardiovascular activity(blood pressure) (0.31 mg/kg) in dog after beta-blockade; format: functional, Canis lupus familiaris
# [21] = tested on: Canis familiaris; experiment: Cardiovascular activity (contractility) (0.31 mg/kg) in dog before beta-blockade.; format: functional, Canis lupus familiaris
# [22] = tested on: Canis familiaris; experiment: Cardiovascular activity(blood pressure) (0.31 mg/kg) in dog before beta-blockade.; format: functional, Canis lupus familiaris
# [23] = tested on: Canis familiaris; experiment: Percent increase in heart rate was evaluated by effect of Cardiotonic agents on myocardial contractility in conscious dog administered orally at dose of 0.31 mg/kg; Value ranges from(10-15); format: functional, Canis lupus familiaris; conditions: route oral
# [24] = tested on: Canis familiaris; experiment: Percent increase in heart rate was evaluated by effect of Cardiotonic agents on myocardial contractility in conscious dog administered orally at dose of 0.31 mg/kg; format: functional, Canis lupus familiaris; conditions: route oral
# [25] = tested on: Canis familiaris; experiment: Percent increase in contractility was evaluated by effect of Cardiotonic agents on myocardial contractility in conscious dog administered orally at dose of 0.1 mg/kg; format: functional, Canis lupus familiaris, Myocardium; conditions: route oral
# [26] = tested on: Canis familiaris; experiment: Percent increase in contractility was evaluated by effect of Cardiotonic agents on myocardial contractility in conscious dog administered orally at dose of 0.31 mg/kg; format: functional, Canis lupus familiaris, Myocardium; conditions: route oral
# [27] = tested on: Canis familiaris; experiment: Percent increase in heart rate was evaluated by effect of Cardiotonic agents on myocardial contractility in conscious dog administered orally at dose of 0.1 mg/kg; Value is not statistically significant.; format: functional, Canis lupus familiaris; conditions: route oral
# [28] = tested on: Canis familiaris; experiment: Percent increase in contractility was evaluated by effect of Cardiotonic agents on myocardial contractility in conscious dog administered orally at dose of 3.1 mg/kg; format: functional, Canis lupus familiaris, Myocardium; conditions: route oral
# [29] = tested on: Canis familiaris; experiment: Percent increase in heart rate was evaluated by effect of Cardiotonic agents on myocardial contractility in conscious dog administered orally at dose of 3.1 mg/kg; format: functional, Canis lupus familiaris; conditions: route oral
structure (smiles),measurement,setting,value
O=C1CCC(c2ccc(-n3ccnc3S)cc2)=NN1,Dose,[1],>10 mg/kg
O=C(O)c1cc(-c2ccc(-n3ccnc3)cc2)nnc1O,Dose,[2],>1 mg/kg
CC1CC(c2ccc(-n3ccnc3)cc2)=NNC1=O (stereo not drawn),Dose,[2],1 mg/kg
O=C1CCC(c2ccc(-n3cccc3)cc2)=NN1,Dose,[3],10 mg/kg
C[S+]([O-])c1nccn1-c1ccc(C2=NNC(=O)CC2)cc1 (stereo not drawn),Dose,[3],10 mg/kg
same,Dose,[2],0.3 mg/kg
Oc1ccc(-c2ccc(-n3cnc4c3CCCC4)cc2)nn1,Dose,[2],0.1 mg/kg
CC(=O)OCCN1N=C(c2ccc(-n3ccnc3)cc2)CCC1=O,Dose,[2],>1 mg/kg
CN1N=C(c2ccc(-n3ccnc3)cc2)CCC1=O,Dose,[2],>1 mg/kg
O=C1NN=C(c2ccc(-n3ccnc3)cc2)C2CCCCC12 (stereo not drawn),Dose,[2],1 mg/kg
Cc1cc(O)nnc1-c1ccc(-n2cnc3c2CCCC3)cc1,Dose,[2],>0.1 mg/kg
O=C1CCC(c2cccc(-n3ccnc3)c2)=NN1,Dose,[4],>1 mg/kg
O=C1CCC(c2ccc(-n3cncn3)cc2)=NN1,Dose,[3],1 mg/kg
NNC(=O)c1cc(-c2ccc(-n3ccnc3)cc2)nnc1O,Dose,[2],1 mg/kg
Nc1cc(-c2ccc(-n3ccnc3)cc2)nnc1O,Dose,[2],0.3 mg/kg
CS(=O)(=O)c1nccn1-c1ccc(C2=NNC(=O)CC2)cc1,Dose,[3],>1 mg/kg
CCc1nc(C)cn1-c1ccc(-c2ccc(O)nn2)cc1,Dose,[2],0.3 mg/kg
Oc1ccc(-c2ccc(-n3ccnc3)cc2)nn1,Dose,[2],0.1 mg/kg
CSc1ccc(C(=O)c2[nH]c(=O)[nH]c2C)cc1 [ENOXIMONE],Dose,[2],0.283 mg/kg
O=C1CCC(c2ccc(-n3cnc4ccccc43)cc2)=NN1,Dose,[3],3.1 mg/kg
same,Dose,[2],0.1 mg/kg
O=C1CCC(c2ccc(-n3cnc(CO)c3)cc2)=NN1,Dose,[2],0.034 mg/kg
O=C1CCC(c2ccc(-n3cnnc3)cc2)=NN1,Dose,[3],>3.1 mg/kg
Cc1nccn1-c1ccc(C2=NNC(=O)CC2)cc1,Dose,[5],1 mg/kg
same,Dose,[2],0.3 mg/kg
CCc1nc(C)c(Br)n1-c1ccc(-c2ccc(O)nn2)cc1,Dose,[2],0.2 mg/kg
COc1cc([S+](C)[O-])ccc1-c1nc2cccnc2[nH]1 (stereo not drawn) [SULMAZOLE],Increase,[6],57%
same,Dose,[2],0.435 mg/kg
same,Increase,[7],61%
Cc1nccn1-c1ccc(-c2ccc(O)nn2)cc1,Dose,[2],0.1 mg/kg
Cc1[nH]c(=O)c(C#N)cc1-c1ccncc1 [MILRINONE],Increase,[8],45%
same,Dose,[2],0.037 mg/kg
same,Increase,[9],60%
O=C1CCC(c2ccc(-n3ccnc3)cc2)=NN1Cc1ccccc1,Dose,[3],10 mg/kg
CCC1CC(=O)NN=C1c1ccc(-n2ccnc2)cc1 (stereo not drawn),Dose,[2],1 mg/kg
CC(C)NCC(O)c1ccc(O)c(O)c1 (stereo not drawn) [ISOPROTERENOL],Change,[10],-6.6%
same,Change,[11],10.4%
same,Change,[12],1%
same,Change,[13],96%
same,Change,[14],31%
same,Change,[15],0.4%
CC1CC(=O)NN=C1c1ccc(-n2cnc3c2CCCC3)cc1 (stereo not drawn) [TETRAHYDROBENXIMIDAZOLE],Dose,[3],0.3 mg/kg
same,Dose,[2],0.02 mg/kg
Cn1nc(-c2ccc(-n3ccnc3)cc2)ccc1=O,Dose,[2],>1 mg/kg
Cc1cc(O)nnc1-c1ccc(-n2ccnc2)cc1,Dose,[2],>1 mg/kg
O=c1ccc(-c2ccc(-n3ccnc3)cc2)nn1CCO,Dose,[2],>1 mg/kg
NC(=O)c1cc(-c2ccc(-n3ccnc3)cc2)nnc1O,Dose,[2],>1 mg/kg
O=C1CCC(c2ccc(-n3ccnc3)cc2)=NN1 [IMAZODAN],Change,[16],5.4%
same,Increase,[17],10%
same,Change,[18],62.4%
same,Increase,[8],40%
same,Change,[19],24%
same,Change,[20],-2.8%
same,Change,[21],82%
same,Dose,[1],1 mg/kg
same,Change,[22],-4.2%
same,Dose,[2],0.045 mg/kg
same,Increase,[9],29%
same,Increase,[23],10%
CC1CC(O)=NN=C1c1ccc(-n2ccnc2)cc1 (stereo not drawn) [CI-930],Increase,[24],49%
same,Increase,[25],42%
same,Increase,[26],70%
same,Increase,[27],34%
same,Dose,[1],0.1 mg/kg
same,Dose,[2],0.013 mg/kg
O=C1CCC(c2ccc(-n3cnc4c3CCCC4)cc2)=NN1,Dose,[3],>1 mg/kg
same,Dose,[2],0.064 mg/kg
CSc1nccn1-c1ccc(C2=NNC(=O)CC2)cc1,Dose,[5],10 mg/kg
O=C1CCC(c2ccc(-n3cccn3)cc2)=NN1,Dose,[1],>3.1 mg/kg
Cc1cc(-c2ccc(-n3ccnc3)cc2)nnc1O,Dose,[2],0.3 mg/kg
CCc1nc(C)cn1-c1ccc(C2=NNC(=O)CC2)cc1,Dose,[3],<3.1 mg/kg
same,Dose,[2],0.1 mg/kg
Nc1cc(-c2ccncc2)c[nH]c1=O [INAMRINONE],Increase,[28],6%
same,Increase,[29],23%
same,Increase,[6],45%
same,Dose,[2],0.389 mg/kg
same,Increase,[7],18%
Oc1ccc(-c2cccc(-n3ccnc3)c2)nn1,Dose,[2],0.2 mg/kg
